Structures can show the parent of a compound that is named as a salt.
These molecules were tested against Glycogen synthase kinase-3 beta (Homo sapiens, UniProt P49841) (assay: concentration-response blocking of human GSK3B – biochemical, luminescence, cell-free homogeneous, retest, dose response (AID 434954)).
Chain of Glycogen synthase kinase-3 beta (P49841 whole entry): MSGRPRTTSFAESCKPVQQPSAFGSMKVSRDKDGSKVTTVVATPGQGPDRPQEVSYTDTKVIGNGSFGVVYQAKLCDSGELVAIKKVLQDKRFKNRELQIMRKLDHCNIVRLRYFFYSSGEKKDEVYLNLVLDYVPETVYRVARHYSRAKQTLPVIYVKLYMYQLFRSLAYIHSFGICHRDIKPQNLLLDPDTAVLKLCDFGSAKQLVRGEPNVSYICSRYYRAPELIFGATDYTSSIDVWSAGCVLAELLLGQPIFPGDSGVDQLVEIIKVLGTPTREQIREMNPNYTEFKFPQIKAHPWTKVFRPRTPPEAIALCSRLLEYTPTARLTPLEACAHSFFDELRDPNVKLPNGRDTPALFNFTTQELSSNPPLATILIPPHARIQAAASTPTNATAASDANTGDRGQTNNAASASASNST

Row | SMILES | EC50
1 | Cn1c(SCc2ccccc2C#N)nnc1-c1ccncc1 [2-(4-Methyl-5-pyridin-4-yl-4H-[1,2,4]triazol-3-ylsulfanylmethyl)-benzonitrile] | > 300 µM
2 | COC(=O)c1ccc(Nc2nc(-c3ccncc3)nc3ccccc23)cc1 [4-[(2-pyridin-4-yl-4-quinazolinyl)amino]benzoic acid methyl ester] | > 300 µM
3 | CCC(C)Nc1nc(N)c([N+](=O)[O-])c(NCCO)n1 (stereo not drawn) [MLS000332774] | 14.7 µM
4 | CCc1cc(=O)oc2cc(C)cc(O)c12 [4-ethyl-5-hydroxy-7-methyl-1-benzopyran-2-one] | > 300 µM
5 | Nc1nonc1-n1nnc(C(=O)N/N=C/c2ccncc2)c1CN1CCCCC1 | 0.181 µM
6 | O=C(CCS(=O)(=O)c1ccc(Br)cc1)Nc1ccc(Cl)cc1F [3-(4-bromophenyl)sulfonyl-N-(4-chloranyl-2-fluoranyl-phenyl)propanamide] | > 300 µM
7 | CCOc1ccccc1NC(=O)N1CCC2(CC1)OCCO2 [MLS000581263] | > 300 µM
8 | COCc1c(C(=O)NN=Cc2ccncc2)nnn1-c1nonc1N [MLS001194772] | 40.1 µM
9 | Nc1nonc1-n1nnc(C(=O)NN=Cc2cccc(F)c2)c1CN1CCCC1 [MLS000948239] | > 300 µM
10 | CN(CC(=O)OCC(=O)Nc1ccccc1)S(=O)(=O)c1ccc(Cl)cc1 [(2-anilino-2-oxoethyl) 2-[(4-chlorophenyl)sulfonyl-methylamino]acetate] | > 300 µM
11 | Cc1ccc2c(c1)NC(=O)c1cc([N+](=O)[O-])ccc1O2 [8-methyl-2-nitrodibenzo[b,f][1,4]oxazepin-11(10H)-one] | > 300 µM
12 | CC(C)N1CCc2c(sc(NC(=O)Cc3ccccc3)c2C(N)=O)C1 | > 300 µM
13 | COCc1c(C(=O)NN=Cc2ccccn2)nnn1-c1nonc1N | > 300 µM
14 | CC(=O)COc1cc(C)cc2oc(=O)cc(-c3ccccc3)c12 | > 300 µM
15 | Cc1c(C(=O)O)cccc1-n1c(C)cc(CN=Nc2ccc([N+](=O)[O-])cn2)c1C | 21.3 µM
16 | COc1cc2c(O)c3c(c(-c4ccc5c(c4)OCO5)c2cc1OC)C(=O)OC3 [9-(1,3-benzodioxol-5-yl)-4-hydroxy-6,7-dimethoxy-3H-benzo[f][2]benzofuran-1-one] | 4.42 µM
17 | Cc1cccc(Nc2nc(N3CCN(C)CC3)nc(N)c2[N+](=O)[O-])c1 [N4-(3-methylphenyl)-2-(4-methylpiperazin-1-yl)-5-nitro-pyrimidine-4,6-diamine] | > 300 µM
18 | O=C1N=C(S)SC1=Cc1ccc(N2CCOCC2)o1 | 8.5 µM
19 | O=C(CCC1COc2ccccc2O1)NCC1COc2ccccc2O1 (stereo not drawn) | > 300 µM
20 | COc1cc(/C=C/c2nc3ccc([N+](=O)[O-])cc3s2)ccc1OCC(=O)O [SMR000365317] | > 300 µM
21 | CCCn1c(SCC(=O)Nc2ccccc2OC)nnc1-c1ccco1 | > 300 µM
22 | O=C(Nc1ccccc1)C(=O)Nc1ccccn1 [N-Phenyl-N'-pyridin-2-yl-oxalamide] | > 300 µM
23 | CS(=O)(=O)N1CCN(c2cccc(Cl)n2)CC1 [MLS000594331] | > 300 µM
24 | Cc1cc(OC(C)C)c2c(-c3ccccc3)cc(=O)oc2c1 [SMR000141385] | > 300 µM
25 | NNC(=O)CNC(=O)c1ccc(F)cc1 | > 300 µM
26 | Nc1nc(Nc2ccccc2)sc1C(=O)c1ccccc1 [(4-azanyl-2-phenylazanyl-1,3-thiazol-5-yl)-phenyl-methanone] | 0.171 µM
27 | COC(CNc1nc(SC)nc2sc3c(c12)CCN(C)C3)OC [MLS001215082] | > 300 µM

Row | SMILES | EC50
28 | CCOc1cc(C2C(C(=O)N3CCCCC3)=C(C)N=C3CC(C)(C)CC(=O)C32)ccc1O (stereo not drawn) [4-(3-ethoxy-4-hydroxyphenyl)-2,7,7-trimethyl-3-[oxo(1-piperidinyl)methyl]-1,4,6,8-tetrahydroquinolin-5-one] | > 300 µM
29 | CS(=O)(=O)N(Cc1ccccc1)c1ccc(C(=O)Nc2ccccc2Sc2ccccc2)cc1 [4-[methylsulfonyl-(phenylmethyl)amino]-N-(2-phenylsulfanylphenyl)benzamide] | > 300 µM
30 | COc1ccc(OC)c(C(=O)c2coc3ccc(OC(C)=O)cc23)c1 [3-(2,5-dimethoxybenzoyl)-1-benzofuran-5-yl acetate] | > 300 µM
31 | COc1ccc(C2CC(=O)c3c(O)cc(O)cc3O2)c(CC=C(C)C)c1OC (stereo not drawn) [antiarone F] | > 300 µM
32 | CC(C(=O)NCC1CCCO1)n1cc([N+](=O)[O-])cn1 (stereo not drawn) [SMR000296777] | > 300 µM
33 | CCOC(=O)c1ccc2ncc(C(=O)OCC)c(Nc3ccc(N4CCOCC4)cc3)c2c1 [diethyl 4-[(4-morpholin-4-ylphenyl)amino]quinoline-3,6-dicarboxylate] | > 300 µM
34 | CCCc1cc(=O)oc2cc(C)cc(O)c12 [5-hydroxy-7-methyl-4-propyl-1-benzopyran-2-one] | > 300 µM
35 | CC(=O)Nc1ccc(S(=O)(=O)c2cc(O)ccc2O)cc1 | > 300 µM
36 | COC(=O)c1nnn(-c2nonc2N)c1CSc1ccc(Cl)cc1 | 15.9 µM
37 | COc1ccccc1-n1c(S)nnc1-c1ccco1 [MLS001214684] | > 300 µM
38 | NC(=O)COC(=O)c1ccc(-c2ccc(O)cc2)cc1 | > 300 µM
39 | CN1CCN(/N=C2\C(=O)Nc3ccc([N+](=O)[O-])cc32)CC1 [SMR000347605] | 6.11 µM
40 | CC1=NN(C(=O)CCc2ccc3c(c2)OCO3)C(O)(C(F)(F)F)C1 (stereo not drawn) [SMR000289779] | > 300 µM
41 | Clc1nccc(NCc2ccccc2)n1 [N-benzyl-N-(2-chloropyrimidin-4-yl)amine] | > 300 µM
42 | CN1CCN(c2nc(-c3ccccc3)nc(-c3ccccc3)c2C#N)CC1 [4-(4-methylpiperazin-1-yl)-2,6-diphenyl-pyrimidine-5-carbonitrile] | > 300 µM
43 | COc1cccc(NC(=O)CN(C2=NC3CS(=O)(=O)CC3S2)c2cccc(C)c2)c1 (stereo not drawn) [MLS001110132] | > 300 µM
44 | CCOC(=O)C(C)Sc1ccc2nnc(-c3ccc(F)cc3)n2n1 (stereo not drawn) [2-[[3-(4-fluorophenyl)-[1,2,4]triazolo[4,3-b]pyridazin-6-yl]thio]propanoic acid ethyl ester] | 19.3 µM
45 | O=C(O)c1ccccc1NCc1cccnc1 [SMR000473304] | > 300 µM
46 | O=C(C1=C[C@@H](c2ccc(C(F)(F)F)cc2)C[C@@H](OCCCCO)O1)N1CCN(Cc2ccccc2)CC1 [SMR000389639] | > 300 µM
47 | Cc1nn(CC(=O)NCCCN2CCCCC2)c(=O)c2cc(-c3ccccc3)nn12 [SMR000631197] | > 300 µM
48 | COc1cccc(/C=C2/Sc3ccc(C(=O)NCCN4CCCCCC4)cc3NC2=O)c1 [MLS001030753] | 94.6 µM
49 | CCN1CCc2c(sc(NC(=O)Cc3ccccc3)c2C(N)=O)C1 [6-ethyl-2-[(1-oxo-2-phenylethyl)amino]-5,7-dihydro-4H-thieno[2,3-c]pyridine-3-carboxamide;hydrochloride] | > 300 µM
50 | CCCCCCCCCCCCC(=O)CCCCC(=O)O [MLS001049131] | > 300 µM
51 | COc1ccccc1Oc1coc2c(CN(C)C)c(O)ccc2c1=O [8-[(dimethylamino)methyl]-7-hydroxy-3-(2-methoxyphenoxy)chromen-4-one] | > 300 µM
52 | CC1(C)CC(=O)C2C(=Nc3[nH]c(=S)[nH]c(=O)c3C2c2ccccc2)C1 (stereo not drawn) [8,8-dimethyl-5-phenyl-2-sulfanylidene-5,7,9,10-tetrahydro-1H-pyrimido[4,5-b]quinoline-4,6-dione] | > 300 µM
53 | COc1ccc(NC(=O)NC2CCCc3ccccc32)cc1 (stereo not drawn) [SMR000678136] | > 300 µM
